Key:
GSK3β = GSK3β (Homo sapiens, UniProt P49841); settings: cited from earlier work
GSK3 = GSK3 inhibitor; cited from earlier work
gamma secretase = settings: read-out: IC50, gamma secretase inhibitor; cited from earlier work
pNSCs = assay: pNSC self-renewal, clonogenicity and culture on Matrigel; assay type: cell-based, human
Method: (§1) hESCs (HUES9 and HUES1) at about 20% confluence were treated with 3 μM CHIR99021 (Cellagentech), 2 μM SB431542 (Cellagentech), 0.1 μM Compound E (γ-Secretase Inhibitor XXI, EMD Chemicals Inc.) in neural induction media containing Advanced DMEM/F12:Neurobasal (1:1), 1×N2, 1×B27, 1% Glutmax, 5 μg/mL BSA and 10 ng/mL hLIF (Millipore), for 7 d. The culture was then split 1:3 for the next six passages using Accutase and cultured in neural induction media supplemented with 3 μM CHIR99021 and 2 μM SB431542 on X-ray inactivated MEF feeders or Matrigel-coated plates. After six passages, the cells were split 1:10 regularly. Neural induction of H1 hESCs follows the same protocol, but using 4 μM CHIR99021, 3 μM SB431542, and 0.1 μM compound E in the first 7 d, after which the cells were regularly cultured with neural induction media supplemented with 3 μM CHIR99021 and 2 μM SB431542. During the initial few passages, overnight treatment with the ROCK inhibitor (Y-27632, 5 μM, Cellagentech) was also used to enhance cell survival, but not required in following passages. In the present study, neural induction data were collected under feeder conditions except the FACS analysis of FIG. 6 performed under feeder-free condition. pNSCs were expanded on Matrigel-coated surfaces.
pNSCs can long-term self-renew over serial passages on Matrigel with SBR431542, CHIR, and hLIF. pNSCs generated from HUES9 and H1 hESCs were routinely passaged 1:10 and have been cultured for >30 passages without obviously losing proliferative capacity, which is equivalent to at least 94 population doublings. However, individual omission of hLIF, SB431542, or CHIR from the media compromised pNSCs' long-term self-renewal. Single pNSC is clonogenic on Matrigel in the presence of hLIF/SB431542/CHIR (FIG. 2A). […] Despite their highly proliferative and clonogenic capacity, pNSCs are not tumorigenic in SCID beige mice.

SAPK2/p38 = SAPK2/p38 (Homo sapiens, UniProt Q16539); settings: inhibitor of CK1 and ALK5; cited from earlier work
Notch signaling = Notch signaling inhibitor and gamma secretase inhibitor; cited from earlier work
hESCs = assay: Neural induction of hESCs (real-time PCR, immunocytochemistry, flow cytometry); assay type: cell-based, human
Method: as §1, with “[…]),” for “CHIR99021 (Cellagentech),”, “([…]),” for “(Cellagentech),”, “Neural induction of H1 hESCs follows the same protocol, but using 4 μM CHIR99021, 3 μM SB431542, and 0.1 μM compound E in the first 7 d, after which the cells were regularly cultured with neural induction media supplemented with 3 μM CHIR99021 and 2 μM SB431542.” left out, “([…])” for “(Y-27632, 5 μM, Cellagentech)”, “surfaces. For immunofluorescence assays, pNSCs were fixed in 4% paraformaldehyde for 10 min. Specifically, 4% paraformaldehyde with 0.15% picric acid was used to fix the neuronal differentiation culture. For immunostaining of GABA antigen, the cells were fixed in 4% paraformaldehyde, 0.15% picric acid and 0.02% Glutaraldehyde. […]” for “surfaces.”

Chain of GSK3β (P49841 whole entry, species assumed): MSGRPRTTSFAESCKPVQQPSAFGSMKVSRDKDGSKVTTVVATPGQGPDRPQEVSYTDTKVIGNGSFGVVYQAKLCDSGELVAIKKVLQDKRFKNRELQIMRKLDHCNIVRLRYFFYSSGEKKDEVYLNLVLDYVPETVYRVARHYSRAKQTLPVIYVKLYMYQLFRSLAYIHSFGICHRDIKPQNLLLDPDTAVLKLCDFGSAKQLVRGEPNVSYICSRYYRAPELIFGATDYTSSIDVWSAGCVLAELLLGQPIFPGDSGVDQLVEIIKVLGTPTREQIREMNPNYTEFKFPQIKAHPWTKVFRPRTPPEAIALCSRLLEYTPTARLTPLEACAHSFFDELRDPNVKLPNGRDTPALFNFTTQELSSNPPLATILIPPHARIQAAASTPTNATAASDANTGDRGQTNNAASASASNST
Chain of SAPK2/p38 (Q16539 whole entry): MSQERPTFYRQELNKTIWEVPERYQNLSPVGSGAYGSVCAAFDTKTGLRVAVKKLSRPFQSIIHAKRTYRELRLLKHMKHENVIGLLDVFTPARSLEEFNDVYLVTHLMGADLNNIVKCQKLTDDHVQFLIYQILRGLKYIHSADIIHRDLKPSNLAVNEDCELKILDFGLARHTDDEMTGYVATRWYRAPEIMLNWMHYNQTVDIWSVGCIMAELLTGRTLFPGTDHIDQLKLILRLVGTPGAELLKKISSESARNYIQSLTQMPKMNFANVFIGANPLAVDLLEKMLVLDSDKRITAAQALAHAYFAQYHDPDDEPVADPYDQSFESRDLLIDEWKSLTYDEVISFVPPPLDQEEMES

## O=C1NC(=O)C(c2cccc3c2OCO3)N1 (stereo not drawn) [(Z)-5-(2,3-Methylenedioxyphenyl)imidazolidine-2,4-dione]
GSK3β
  IC50: 27 nM

## C[C@H](NC(=O)Cc1cc(F)cc(F)c1)C(=O)N[C@H]1N=C(c2ccccc2)c2ccccc2N(C)C1=O [Compound E, (S,S)-2-[2-(3,5-Difluorophenyl)-acetylamino]-N-(1-methyl-2-oxo-5-phenyl-2,3-dihydro-1H-benzo[e][1,4]diazepin-3-yl)-propionamide]
Gamma secretase
  IC50: ~0.3 nM
pNSCs; 48 h treatment
  effect on established pNSCs: rapidly induced pNSCs to differentiate into Double cortin (DCX)-positive neuronal precursors
pNSCs; on Matrigel
  colony formation from single pNSC: no colonies were observed

## NC(=O)c1ccc(-c2nc(-c3ccc4c(c3)OCCO4)c(-c3ccccn3)[nH]2)cc1 [D 4476, 4-[4-(2,3-Dihydro-1,4-benzodioxin-6-yl)-5-(2-pyridinyl)-1H-imidazol-2-yl]benzamide]
SAPK2/p38
  selectivity over SAPK2/p38: > 20 fold

## CCC[C@H](N[C@H]1CCc2cc(F)cc(F)c2C1)C(=O)Nc1cn(C(C)(C)CNCC(C)(C)C)cn1 [PF-03084014, (S)-2-(((S)-6,8-difluoro-1,2,3,4-tetrahydronaphthalen-2-yl)amino)-N-(1-(2-methyl-1-(neopentylamino)propan-2-yl)-1H-imidazol-4-yl)pentanamide]
Notch signaling
  IC50: 13.3 nM

## bFGF: basic fibroblast growth factor, 20 ng/mL in neural induction media
pNSCs; neural induction media with 20 ng/mL bFGF, 4 d
  morphology of pNSCs: gained rosette-like structures

B1: Wnt3a: Wnt3a used to replace CHIR in the neural induction protocol (protein, UniProt P56704 19-352, looked up)
Protein Wnt-3a: SYPIWWSLAVGPQYSSLGSQPILCASIPGLVPKQLRFCRNYVEIMPSVAEGIKIGIQECQHQFRGRRWNCTTVHDSLAIFGPVLDKATRESAFVHAIASAGVAFAVTRSCAEGTAAICGCSSRHQGSPGKGWKWGGCSEDIEFGGMVSREFADARENRPDARSAMNRHNNEAGRQAIASHMHLKCKCHGLSGSCEVKTCWWSQPDFRAIGDFLKDKYDSASEMVVEKHRESRGWVETLRPRYTYFKVPTERDLVYYEASPNFCEPNPETGSFGTRDRTCNVSSHGIDGCDLLCCGRGHNARAERRREKCRCVFHWCCYVSCQECTRVYDVHTCK
hESCs
  effect of replacing CHIR in the neural induction protocol: induced significant spontaneous differentiation and did not generate a homogenous NSC population
